From PubChem BioAssay (NCI)
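Test compounds were applied to cells in 96-well plates for 48 hours at 5 doses. TGI: total growth inhibition.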

Columns and labels:
Assay in all cases: DTP human tumour cell line panel, 48 h
SN12C renal = test system: SN12C renal
ACHN renal = test system: ACHN renal
CAKI-1 renal = test system: CAKI-1 renal
OVCAR-4 ovarian = test system: OVCAR-4 ovarian
MALME-3M melanoma = test system: MALME-3M melanoma
OVCAR-8 ovarian = test system: OVCAR-8 ovarian
KM12 colon = test system: KM12 colon
SR leukemia = test system: SR leukemia
TK-10 renal = test system: TK-10 renal
SK-MEL-5 melanoma = test system: SK-MEL-5 melanoma
UACC-257 melanoma = test system: UACC-257 melanoma
SNB-19 CNS = test system: SNB-19 CNS
HOP-92 NSCLC = test system: HOP-92 NSCLC
EKVX NSCLC = test system: EKVX NSCLC
SF-295 CNS = test system: SF-295 CNS
786-0 renal = test system: 786-0 renal
MOLT-4 leukemia = test system: MOLT-4 leukemia
MDA-MB-231 breast = test system: MDA-MB-231 breast
SNB-75 CNS = test system: SNB-75 CNS
CCRF-CEM leukemia = test system: CCRF-CEM leukemia
SF-268 CNS = test system: SF-268 CNS
M14 melanoma = test system: M14 melanoma
HCC-2998 colon = test system: HCC-2998 colon
A498 renal = test system: A498 renal
NCI-H522 lung = test system: NCI-H522 lung
MCF7 breast = test system: MCF7 breast
BT-549 breast = test system: BT-549 breast
U251 CNS = test system: U251 CNS
COLO 205 colon = test system: COLO 205 colon
UACC-62 melanoma = test system: UACC-62 melanoma
T-47D breast = test system: T-47D breast
RXF 393 renal = test system: RXF 393 renal
SK-MEL-28 melanoma = test system: SK-MEL-28 melanoma
HS 578T breast = test system: HS 578T breast
DU-145 prostate = test system: DU-145 prostate
SK-MEL-2 melanoma = test system: SK-MEL-2 melanoma
RPMI-8226 leukemia = test system: RPMI-8226 leukemia
MDA-MB-435 = test system: MDA-MB-435
SF-539 CNS = test system: SF-539 CNS
PC-3 prostate = test system: PC-3 prostate
UO-31 renal = test system: UO-31 renal
HCT-15 colon = test system: HCT-15 colon
IGROV1 ovarian = test system: IGROV1 ovarian
NCI/ADR-RES ovarian = test system: NCI/ADR-RES ovarian
K-562 leukemia = test system: K-562 leukemia
HL-60(TB) leukemia = test system: HL-60(TB) leukemia
LOX IMVI melanoma = test system: LOX IMVI melanoma
OVCAR-5 ovarian = test system: OVCAR-5 ovarian
A549 NSCLC = test system: A549 NSCLC
OVCAR-3 ovarian = test system: OVCAR-3 ovarian
NCI-H460 lung = test system: NCI-H460 lung
SW-620 colon = test system: SW-620 colon
NCI-H226 lung = test system: NCI-H226 lung

Measured: TGI

Cc1cc(C)c2c(c1)CC1(Cc3cc(C)c(C)cc3C1=O)C2=O (stereo not drawn)
> 100 µM: SN12C renal | ACHN renal | CAKI-1 renal | OVCAR-4 ovarian | MALME-3M melanoma | OVCAR-8 ovarian | KM12 colon | SR leukemia | TK-10 renal | SK-MEL-5 melanoma | UACC-257 melanoma | SNB-19 CNS | HOP-92 NSCLC | EKVX NSCLC | SF-295 CNS | 786-0 renal | MOLT-4 leukemia | MDA-MB-231 breast | SNB-75 CNS | CCRF-CEM leukemia | SF-268 CNS | M14 melanoma | HCC-2998 colon | A498 renal | NCI-H522 lung | MCF7 breast | BT-549 breast | U251 CNS | COLO 205 colon | UACC-62 melanoma | T-47D breast | RXF 393 renal | SK-MEL-28 melanoma | HS 578T breast | DU-145 prostate | SK-MEL-2 melanoma | RPMI-8226 leukemia | MDA-MB-435 | SF-539 CNS | PC-3 prostate | UO-31 renal | HCT-15 colon | IGROV1 ovarian | NCI/ADR-RES ovarian | K-562 leukemia | HL-60(TB) leukemia | LOX IMVI melanoma | OVCAR-5 ovarian | A549 NSCLC | OVCAR-3 ovarian | NCI-H460 lung | SW-620 colon | NCI-H226 lung
